Laboratory results from the supplement of paper PMC10307832.

Legend:
Test in all cases: relative viability (nuclei count vs DMSO), 5 days (fraction); higher = more cells survive
Linsitinib + AZD7762 = compound: C[C@]1(O)C[C@@H](c2nc(-c3ccc4ccc(-c5ccccc5)nc4c3)c3c(N)nccn32)C1 [Linsitinib] + NC(=O)Nc1cc(-c2cccc(F)c2)sc1C(=O)N[C@H]1CCCNC1 [AZD7762] (partner 0.2 µM)
Method in brief: (§1)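 Lung cancer cell lines were seeded in 1536-well plates and dosed by pin tool the next day, with either a single drug or a fixed anchor-drug dose combined with five library-drug doses (not always all listed) spaced in √10 steps. Five days later, one step fixed the cells and stained their nuclei (final 0.05% Triton X-100, 1% formaldehyde, 1 ug/ml Hoechst), and nuclei were counted on 4× images. Relative viability is the nuclei count in treated wells divided by the count in vehicle wells, and each value is the median of duplicate plates.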

Linsitinib + Navitoclax = compound: C[C@]1(O)C[C@@H](c2nc(-c3ccc4ccc(-c5ccccc5)nc4c3)c3c(N)nccn32)C1 [Linsitinib] + CC1(C)CCC(c2ccc(Cl)cc2)=C(CN2CCN(c3ccc(C(=O)NS(=O)(=O)c4ccc(N[C@H](CCN5CCOCC5)CSc5ccccc5)c(S(=O)(=O)C(F)(F)F)c4)cc3)CC2)C1 [Navitoclax] (partner 0.5 µM)
Method in brief: as §1

Linsitinib + Alpelisib = compound: C[C@]1(O)C[C@@H](c2nc(-c3ccc4ccc(-c5ccccc5)nc4c3)c3c(N)nccn32)C1 [Linsitinib] + Cc1nc(NC(=O)N2CCC[C@H]2C(N)=O)sc1-c1ccnc(C(C)(C)C(F)(F)F)c1 [Alpelisib] (partner 2 µM)
Method in brief: as §1

Ispinesib + Navitoclax = compound: Cc1ccc(C(=O)N(CCCN)[C@@H](c2nc3cc(Cl)ccc3c(=O)n2Cc2ccccc2)C(C)C)cc1 [Ispinesib] + CC1(C)CCC(c2ccc(Cl)cc2)=C(CN2CCN(c3ccc(C(=O)NS(=O)(=O)c4ccc(N[C@H](CCN5CCOCC5)CSc5ccccc5)c(S(=O)(=O)C(F)(F)F)c4)cc3)CC2)C1 [Navitoclax] (partner 0.5 µM)
Method in brief: as §1

Row | Cell Line | relative viability (Linsitinib + AZD7762; first compound 0.01 µM) | relative viability (Linsitinib + AZD7762; first compound 0.03162 µM) | relative viability (Linsitinib + AZD7762; first compound 0.1 µM) | relative viability (Linsitinib + AZD7762; first compound 0.3162 µM) | relative viability (Linsitinib + AZD7762; first compound 1 µM) | relative viability (Linsitinib + Navitoclax; first compound 0.01 µM) | relative viability (Linsitinib + Navitoclax; first compound 0.03162 µM) | relative viability (Linsitinib + Navitoclax; first compound 0.1 µM) | relative viability (Linsitinib + Navitoclax; first compound 0.3162 µM) | relative viability (Linsitinib + Navitoclax; first compound 1 µM) | relative viability (Linsitinib + Alpelisib; first compound 0.01 µM) | relative viability (Linsitinib + Alpelisib; first compound 0.03162 µM) | relative viability (Linsitinib + Alpelisib; first compound 0.1 µM) | relative viability (Linsitinib + Alpelisib; first compound 0.3162 µM) | relative viability (Linsitinib + Alpelisib; first compound 1 µM) | relative viability (Ispinesib + Navitoclax; first compound 0.001 µM) | relative viability (Ispinesib + Navitoclax; first compound 0.003162 µM) | relative viability (Ispinesib + Navitoclax; first compound 0.01 µM) | relative viability (Ispinesib + Navitoclax; first compound 0.03162 µM) | relative viability (Ispinesib + Navitoclax; first compound 0.1 µM)
1 | 201T | 0.554 | 0.59 | 0.675 | 0.509 | 0.612 | 1.22 | 1.26 | 1.23 | 1.29 | 1.24 | 1.01 | 1.04 | 1.1 | 1.06 | 1.04 | 1.23 | 1.17 | 1.19 | 1.17 | 1.08
2 | A549 |  |  |  |  |  | 1.21 | 1.15 | 1.1 | 1.01 | 0.895 | 0.744 | 0.668 | 0.634 | 0.423 | 0.421 | 1.34 | 1.16 | 1.18 | 0.0508 | 0.0539
3 | A-427 | 0.749 | 0.624 | 0.742 |  | 0.535 | 0.97 | 0.964 | 0.999 |  | 0.967 | 1.11 | 1.02 | 1.05 |  | 0.997 | 0.938 | 0.995 | 1.06 | 0.827 | 0.903
4 | ABC-1 |  |  | 0.765 | 0.861 | 0.602 |  |  |  |  |  | 0.925 | 0.726 | 0.912 | 0.76 | 0.719 |  |  |  |  | 
5 | BEN | 0.563 | 0.771 | 0.617 | 0.742 | 0.677 | 0.0565 | 0.0788 | 0.0565 | 0.0421 | 0.0587 | 1.09 | 1.02 | 0.935 | 0.662 | 1.04 | 0.0635 | 0.0753 | 0.0591 | 0.0599 | 0.053
6 | CAL-12T | 0.67 | 0.595 | 0.734 | 0.577 | 0.743 | 1.2 | 1.2 | 1.28 | 1.05 | 0.991 | 1.18 | 1.18 | 1.24 | 0.99 | 1.07 | 1.28 | 1.4 | 1.47 | 0.537 | 0.177
7 | COR-L23 |  |  |  |  |  | 0.915 | 1.01 | 1.11 | 0.931 | 0.897 | 0.725 | 0.907 | 0.769 | 0.623 | 0.55 | 1.06 | 1.15 | 1.34 | 0.192 | 0.124
8 | COR-L 105 |  |  |  |  |  | 0.826 | 0.759 | 0.856 | 0.604 | 0.709 | 0.843 | 0.869 | 1.01 | 0.761 | 0.829 | 0.722 | 0.824 | 0.676 | 0.464 | 0.345
9 | Calu-6 |  |  |  |  |  | 0.826 | 0.688 | 0.843 | 0.629 | 0.572 | 1.01 | 0.919 | 1.04 | 1.03 | 0.794 | 0.764 | 0.344 | 0.173 | 0.0922 | 0.12
10 | ChaGo-K-1 | 0.893 | 0.91 | 0.855 |  | 0.799 | 1.09 | 0.793 | 0.829 | 0.377 | 0.939 |  |  |  |  |  | 1.11 | 1.45 | 0.995 | 0.732 | 0.335
11 | EBC-1 |  |  |  |  |  | 0.424 | 0.411 | 0.393 | 0.352 | 0.251 | 0.758 | 0.841 | 1.05 | 0.601 | 0.814 | 0.349 | 0.43 | 0.246 | 0.189 | 0.223
12 | EKVX |  | 0.662 | 0.717 | 0.707 | 0.631 | 0.967 | 0.637 | 0.989 | 0.814 | 0.854 | 0.842 | 0.848 | 0.856 | 0.901 | 0.756 | 1.07 | 0.964 | 1.06 | 0.75 | 0.22
13 | EMC-BAC-2 | 1.12 | 1.07 | 1.1 | 0.775 | 0.553 | 1.16 | 1.17 | 1.14 | 0.996 | 1.16 | 0.7 | 0.689 | 0.748 | 0.613 | 0.667 | 1.2 | 1.35 | 1.28 | 1.08 | 0.758
14 | EPLC-272H | 0.186 | 0.22 | 0.221 |  | 0.334 | 1.12 | 1.29 | 1.41 |  | 1.2 | 0.909 | 0.942 | 0.87 |  | 0.925 | 1.24 | 1.21 | 1.25 | 0.784 | 1.02
15 | H3255 | 0.7 | 0.884 | 0.813 | 0.69 | 0.806 | 0.615 | 0.504 | 0.499 | 0.433 | 0.395 | 0.605 | 0.858 | 0.732 | 0.591 | 0.771 | 0.562 | 0.541 | 0.46 | 0.344 | 0.217
16 | HARA | 0.355 | 0.237 | 0.344 |  | 0.179 | 1.09 | 1.17 | 1.13 | 0.788 | 1.15 | 0.802 | 0.768 | 0.732 | 0.409 | 0.716 | 1.28 | 1.17 | 1.36 | 1.17 | 0.12
17 | HCC-15 | 1.07 | 1.15 | 1.16 | 0.839 | 1.11 | 0.657 | 0.698 | 0.693 | 0.489 | 0.62 | 0.918 | 0.887 | 0.952 | 0.582 | 0.775 | 0.792 | 0.82 | 0.848 | 0.665 | 0.401
18 | HCC-44 | 1.01 | 0.962 | 0.995 | 0.855 | 0.925 | 1.01 | 0.839 | 0.85 | 0.718 | 0.794 | 0.751 | 0.677 | 0.691 | 0.499 | 0.606 | 1.02 | 1 | 1.2 | 1.05 | 0.265
